Results on 18 compounds are retold here after PubChem BioAssay AID328 (DTP/NCI, 2004).

The subject of this assay is BDF1 mice, P388 leukemia ip, median survival T/C. The assay can be described thus: NCI In Vivo Anticancer Drug Screen. Data for tumor model P388 Leukemia (intraperitoneal) in B6D2F1 (BDF1) mice. To be noted: endpoint: median survival time, higher = longer survival. The method in brief:
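Steps: implant the tumour, treat one group with compound and another with vehicle, record survival, then divide treated by control.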

Where [1] appears, read: dose: 12.5 mg/kg/injection, schedule: Q01DX009 (ip), vehicle: saline with Tween-80.
The mark [2] stands for this setting: dose: 25.0 mg/kg/injection, schedule: Q01DX009 (ip), vehicle: saline with Tween-80.
The mark [3] stands for this setting: dose: 25.0 mg/kg/injection, schedule: Q04DX003 (ip), vehicle: saline with Tween-80.
The mark [4] stands for this setting: dose: 50.0 mg/kg/injection, schedule: Q04DX003 (ip), vehicle: saline with Tween-80.
The mark [5] stands for this setting: dose: 50.0 mg/kg/injection, schedule: Q04DX003 (ip), vehicle: saline.
Setting [6] is: dose: 100.0 mg/kg/injection, schedule: Q01DX009 (ip), vehicle: saline with Tween-80.
[7] abbreviates: dose: 100.0 mg/kg/injection, schedule: Q04DX003 (ip), vehicle: saline with Tween-80.
Setting [8] is: dose: 100.0 mg/kg/injection, schedule: Q04DX003 (ip), vehicle: saline.
Setting [9] is: dose: 400.0 mg/kg/injection, schedule: Q04DX003 (ip), vehicle: saline with Tween-80.
[10] abbreviates: dose: 200.0 mg/kg/injection, schedule: Q04DX003 (ip), vehicle: saline with Tween-80.
Setting [11] is: dose: 50.0 mg/kg/injection, schedule: Q01DX009 (ip), vehicle: saline with Tween-80.
Where [12] appears, read: dose: 25.0 mg/kg/injection, schedule: Q04DX003 (ip), vehicle: saline.
[13] abbreviates: dose: 25.0 mg/kg/injection, schedule: Q01DX009 (ip), vehicle: Klucel (hydroxypropylcellulose) (HPC).

“And” between values parts separate entries of the source, which are not always exact repeats. Equal values may be shown once. Inconclusive results and toxic doses are left out.

Consider `ClCC[N+]12CC[N+](CCCl)(CC1)C2`, for which the T/C runs as follows: under setting [1], 103 % of control; under setting [2], 118 % of control and 116 % of control; under setting [3], 108 % of control; under setting [4], 93 % of control and 108 % of control; under setting [5], 103 % of control; under setting [6], 150 % of control and 206 % of control and 168 % of control. For the same compound, the T/C under setting [7] was 171 % of control; the T/C under setting [8] is 122 % of control; the T/C (dose: 200.0 mg/kg/injection, schedule: Q04DX003 (ip), vehicle: saline) is 165 % of control; the T/C (dose: 264.0 mg/kg/injection, schedule: Q04DX003 (ip), vehicle: saline with Tween-80) was 200 % of control; the T/C (dose: 400.0 mg/kg/injection, schedule: Q01DX009 (ip), vehicle: saline with Tween-80) was 112 % of control; the T/C (dose: 400.0 mg/kg/injection, schedule: Q01DX009 (ip), vehicle: saline) is 178 % of control. The T/C runs as follows: under setting [9], 96 % of control; (dose: 400.0 mg/kg/injection, schedule: Q04DX003 (ip), vehicle: saline) 244 % of control; (dose: 600.0 mg/kg/injection, schedule: Q04DX003 (ip), vehicle: saline with Tween-80) 95 % of control.
As to `C1CSCCO1.[Cu+2].[O-][Cl+3]([O-])([O-])O`, the T/C is 97 % of control (dose: 6.25 mg/kg/injection, schedule: Q04DX003 (ip), vehicle: saline with Tween-80); 99 % of control (dose: 12.5 mg/kg/injection, schedule: Q04DX003 (ip), vehicle: saline with Tween-80); 108 % of control under setting [3].
For the compound `CCOc1ccc2nnnn2n1`, the T/C is, setting by setting: (dose: 62.5 mg/kg/injection, schedule: Q01DX009 (ip), vehicle: saline) 100 % of control; (dose: 250.0 mg/kg/injection, schedule: Q01DX009 (ip), vehicle: saline) 97 % of control.
Take `C=C1CCC2(C)C(O)CC3(C)C(CCC4C5(C)CCC(OC(C)=O)C(C)(C)C5CCC43C)C2C1C` (stereo not given): the T/C was 97 % of control (dose: 1.0 mg/kg/injection, schedule: Q01DX009 (ip), vehicle: saline + alcohol); 106 % of control (dose: 2.0 mg/kg/injection, schedule: Q01DX009 (ip), vehicle: saline + alcohol); 92 % of control (dose: 4.0 mg/kg/injection, schedule: Q01DX009 (ip), vehicle: saline + alcohol).
`Cc1ccc2nc(-c3ccccc3N)[nH]c2c1`: the T/C reads like this: under setting [7], 100 % of control; under setting [10], 104 % of control; under setting [9], 90 % of control.
Consider `COc1ccc2c(c1)CCC1C2CCC2(C)/C(=N/O)C3OC3C12` (stereo not given), for which the T/C runs as follows: under setting [11], 121 % of control; under setting [6], 111 % of control; (dose: 200.0 mg/kg/injection, schedule: Q01DX009 (ip), vehicle: saline with Tween-80) 111 % of control.
Turning to `CN(C)C1C(=O)C(C(N)=O)=C(O)C2(O)C(=O)C3=C(O)c4c(O)cccc4C(C)(O)C3C(O)C12` (stereo not given), the T/C is, setting by setting: (dose: 50.0 mg/kg/injection, schedule: Q01DX010 (oral), vehicle: water) 100 % of control; (dose: 100.0 mg/kg/injection, schedule: Q01DX010 (oral), vehicle: water) 109 % of control; (dose: 200.0 mg/kg/injection, schedule: Q01DX010 (oral), vehicle: water) 100 % of control.
With `COc1cccc2c1C(=O)c1c(O)c3c(c(O)c1C2=O)C[C@@](O)(C(O)O)C[C@@H]3OC1CC(N)C(O)C(C)O1` (stereo not given in full), the T/C (dose: 4.0 mg/kg/injection, schedule: Q01DX009 (ip), vehicle: water) was 169 % of control; the T/C (dose: 8.0 mg/kg/injection, schedule: Q01DX009 (ip), vehicle: water) was 87 % of control; the T/C (dose: 16.0 mg/kg/injection, schedule: Q01DX009 (ip), vehicle: water) is 87 % of control.
`Cc1cc(Cl)c2ccccc2c1N`: the T/C reads like this: (dose: 44.0 mg/kg/injection, schedule: Q01DX009 (ip), vehicle: other) 100 % of control; (dose: 66.0 mg/kg/injection, schedule: Q01DX009 (ip), vehicle: other) 110 % of control; (dose: 100.0 mg/kg/injection, schedule: Q01DX009 (ip), vehicle: other) 115 % of control; (dose: 150.0 mg/kg/injection, schedule: Q01DX009 (ip), vehicle: other) 110 % of control.
For `N=c1ccc2nc3ccc(N)cc3sc-2c1`, the T/C is 100 % of control under setting [12] and 109 % of control under setting [5].
Take `CCNc1cc(Cl)nc(N)n1`: the T/C was 95 % of control under setting [1]; 104 % of control under setting [2]; 104 % of control under setting [11]; 108 % of control under setting [7]; 95 % of control under setting [10]; 112 % of control under setting [9].
As for `CCCC1CC[N-]CC1.CCCC1CC[N-]CC1.[Cl][Pt+2]([Cl])([Cl])[Cl]`, the T/C reads like this: under setting [12], 122 % of control; (dose: 33.0 mg/kg/injection, schedule: Q04DX003 (ip), vehicle: saline with Tween-80) 150 % of control; (dose: 37.5 mg/kg/injection, schedule: Q04DX003 (ip), vehicle: saline with Tween-80) 118 % of control; under setting [11], 110 % of control; under setting [4], 160 % of control.
As for `[CH3][Sn]([CH3])([CH3])[S]C(=S)N1CCOCC1`, the T/C (dose: 0.75 mg/kg/injection, schedule: Q01DX009 (ip), vehicle: Klucel (hydroxypropylcellulose) (HPC)) was 97 % of control.
In the case of `CN1C(=O)CC2(CCN(CCCC(=O)c3ccc(F)cc3)CC2)C1=O`, the T/C (dose: 6.25 mg/kg/injection, schedule: Q01DX009 (ip), vehicle: saline with Tween-80) is 116 % of control; the T/C under setting [1] was 107 % of control; the T/C under setting [13] was 118 % of control; the T/C under setting [2] was 124 % of control; the T/C (dose: 50.0 mg/kg/injection, schedule: Q01DX009 (ip), vehicle: Klucel (hydroxypropylcellulose) (HPC)) is 120 % of control; the T/C under setting [11] was 97 % of control.
As for `CCN(CC)P(Cl)(C1=C(Cl)C(=O)C(C#N)=C(C#N)C1=O)(N(CC)CC)N(CC)CC`, the T/C is, setting by setting: (dose: 25.0 mg/kg/injection, schedule: Q01DX001 (ip), vehicle: saline with Tween-80) 97 % of control; (dose: 50.0 mg/kg/injection, schedule: Q01DX001 (ip), vehicle: saline with Tween-80) 95 % of control; (dose: 100.0 mg/kg/injection, schedule: Q01DX001 (ip), vehicle: saline with Tween-80) 95 % of control.
With `CCNC1(c2ccc(Cl)cc2)CCCCC1=O` (stereo not given), the T/C was 100 % of control (dose: 25.0 mg/kg/injection, schedule: Q01DX009 (ip), vehicle: saline); 95 % of control and 100 % of control (dose: 50.0 mg/kg/injection, schedule: Q01DX009 (ip), vehicle: saline); 100 % of control under setting [5]; 86 % of control (dose: 100.0 mg/kg/injection, schedule: Q01DX009 (ip), vehicle: saline); 95 % of control under setting [8].
In the case of `CC(=O)OCC(=O)[C@@]1(O)CC[C@H]2[C@@H]3CCC4=CC(=O)[C@H](C)C[C@]4(C)[C@@]3(F)[C@@H](O)C[C@@]21C`, the T/C (dose: 6.25 mg/kg/injection, schedule: Q01DX009 (ip), vehicle: Klucel (hydroxypropylcellulose) (HPC)) was 109 % of control; the T/C (dose: 12.5 mg/kg/injection, schedule: Q01DX009 (ip), vehicle: Klucel (hydroxypropylcellulose) (HPC)) was 109 % of control; the T/C under setting [13] was 90 % of control; the T/C (dose: 254.0 mg/kg/injection, schedule: Q01DX001 (ip), vehicle: Klucel (hydroxypropylcellulose) (HPC)) is 100 % of control; the T/C (dose: 385.0 mg/kg/injection, schedule: Q01DX001 (ip), vehicle: Klucel (hydroxypropylcellulose) (HPC)) was 91 % of control.
Take `CCCCCCCC[N+](CC)(CC)CCOC(=O)C(C1CCCC1)C1CCCC1`: the T/C is, setting by setting: (dose: 0.9 mg/kg/injection, schedule: Q04DX003 (ip), vehicle: saline) 90 % of control; (dose: 1.32 mg/kg/injection, schedule: Q01DX001 (ip), vehicle: saline) 87 % of control; (dose: 1.8 mg/kg/injection, schedule: Q04DX003 (ip), vehicle: saline) 109 % of control; (dose: 2.65 mg/kg/injection, schedule: Q01DX001 (ip), vehicle: saline) 100 % of control; (dose: 3.6 mg/kg/injection, schedule: Q01DX009 (ip), vehicle: saline) 110 % of control; (dose: 3.6 mg/kg/injection, schedule: Q04DX003 (ip), vehicle: saline) 109 % of control. Also, the T/C was 91 % of control (dose: 5.3 mg/kg/injection, schedule: Q01DX001 (ip), vehicle: saline) and 90 % of control (dose: 5.3 mg/kg/injection, schedule: Q04DX003 (ip), vehicle: saline).
